Assay results as given in patent US20140190496A1, “METHODS AND DEVICES FOR COMPOUND DELIVERY” (priority 2012, published 2014).
Where “and” joins values, the source holds several entries; their conditions need not be identical. Identical values can stand only once.

Assays:
[1] = Particle size diameter of aerosols from ENT-100-A/B/C devices with wire coil heater elements and bypass inlets; format: physicochemical; settings: 1 sec, listed as propylene glycol formulation
From the text: This example describes the particle size diameters (PSD) of aerosols generated from a device comprising a heater element comprising a wire coil. […] The “A Coil” comprises a stretch of coil followed by a straight lead on either end of the coil which connects to the brass contacts. The “B Coil” comprises a stretch of coil, wherein the coil itself connects to the brass contacts.

[2] = Aerosol particle size from test airway apparatus with stainless steel foil heater element; format: physicochemical; settings: dose 1 mg
From the text: A hole to deposite drug (2706a) is provided and foil is shown (2708a). Brass contacts (2710a) are provided.

[3] = Aerosol particle size from test apparatus with wire coil heater element; format: physicochemical; settings: stainless steel coil heater, 3.5 coils; air flow 2 Liters/min; dose 1 mg; 2.5 Amps; 1 second
[4] = Particle size diameter, ENT-100-D, heater element leads lengthened, with or without MARK V adder; format: physicochemical; settings: foam replaced w/SS screen, flow 2.04-2.06 LPM, 2 amps
From the text: This example describes the particle size diameters (PSD) of aerosols generated from a heater element as described in FIG. 36. The length of the leads in this example is 0.70 inches (about 17.78 mm). The heater element is inserted into the device depicted in FIG. 31D. […] In this example, the liquid formulation comprises propylene glycol and it wicks onto the ends of the wire of the heater element and onto the brass contacts.

[5] = Effect of gravity (device rotation) on particle size diameter, ENT-100-D; format: physicochemical; settings: ENT-100-D loaded with 2 mg; device rotated 90 degrees in all dimensions from baseline
From the text: The device is rotated 90 degrees in all dimensions from a stable baseline position. […] As a result, the device produces particles of a consistent size regardless of the orientation in space of the device.

[6] = cited from earlier work

Q: Which results are given for CC(O)CO (stereo not shown) [PG, propylene glycol]?
A: PSD (microns) ([1]; B Coil, dose 2 mg, 2.0 amps, heater element moved aft, B configuration (total flow 12 LPM), flow 1.5-1.60 LPM, flow 1.5 LPM): 1.7-1.8 microns; PSD (microns) ([1]; B Coil, dose 2 mg, 2.0 amps, heater element moved aft, B configuration (total flow 12 LPM), flow 1.5-1.60 LPM, flow 1.60 LPM): 1.7-1.75 microns; PSD (microns) ([1]; ENT-100-B with B Coil, dose 2 mg, 2.0 amps, bypass untaped, total flow ~8.5 LPM, flow 1.5-1.52 LPM, flow 1.5 LPM): 1.8-1.9 microns; PSD (microns) ([1]; ENT-100-B with B Coil, dose 2 mg, 2.0 amps, with stainless steel (SS) screen to even flow, flow 1.55-1.56 LPM, flow 1.56 LPM): 2.6-2.9 microns; PSD (microns) ([1]; ENT-100-C, new heater element .032 ID 0.100 stretch, 2 mg dose, flow 2.04 LPM, 2.6 amps): 2.0-2.5 microns and 2.0-2.2 microns and 2.1-2.3 microns and 2.1-2.2 microns; Particle Size Diameter (microns) ([2]; heater element thickness 0.0005 inches, air flow 1 Liters/min, 6 Amps, heating 1 second): 2.1-3 microns; Particle Size Diameter (microns) ([2]; heater element thickness 0.0005 inches, air flow 1 Liters/min, 8 Amps, heating 0.5 seconds): 2 microns; Particle Size Diameter (microns) ([2]; heater element thickness 0.001 inches, air flow 1 Liters/min, 8 Amps, heating 0.7 seconds): 1 microns; Particle Size Diameter (microns) ([2]; heater element thickness 0.001 inches, air flow 3 Liters/min, 7 Amps, heating 1 second): 1.8 microns and 2 microns and 1.5-1.8 microns and 1.4-1.8 microns; Particle Size Diameter (microns) ([2]; heater element thickness 0.001 inches, air flow 3 Liters/min, 10 Amps, heating 1 second): 1 microns and 0.9 microns; Particle Size Diameter (microns) ([2]; heater element thickness 0.001 inches, air flow 6 Liters/min, 10 Amps, heating 1 second): 0.6 microns and 0.6-0.8 microns; Particle Size Diameter (microns) ([2]; heater element thickness 0.001 inches, air flow 12 Liters/min, 10 Amps, heating 1 second): 0.5 microns; Particle Size Diameter (microns) [3]: 1.5-2.2 microns; PSD (microns) ([4]; flow 2.04 LPM): 2.7-3.0 microns and 2.8-3.0 microns; PSD (microns) ([4]; flow 2.05 LPM): 2.6-2.8 microns; PSD (microns) ([4]; flow 2.06 LPM): 3.0-3.1 microns; particle size diameter at each rotation [5]: found not to change

Q: With CN1CCCC1c1cccnc1 (stereo not shown) [nicotine] as the compound, how does the “time to achieve peak increments of plasma nicotine concentration” value ([6]; smoking a cigarette) read?
A: Its value is at most 10 min.

Q: And the “peak increments of plasma nicotine concentration” value ([6]; smoking a single cigarette)?
A: The value was 5 to 30 ng/mL.
